In PubChem BioAssay AID248 (DTP/NCI, 2004):
Toxic doses and inconclusive results are not listed. No stated cut-off is given here; in the data, active means T/C of 150% or more; inactive means T/C below 125%.

Test system: L1210 leukemia ip in BDF1 mice, survival T/C
Experiment: NCI In Vivo Anticancer Drug Screen. Data for tumor model L1210 Leukemia (intraperitoneal) in B6D2F1 (BDF1) mice
Details: higher = longer survival
Summary of the method: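 Mice bearing the transplanted tumor received compound or vehicle. Survival of the treated group was divided by that of the vehicle-treated control group to give the ratio.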

[1] = endpoint: mean survival time, dose: 100.0 mg/kg/injection, schedule: Q01DX009 (ip), vehicle: Klucel (hydroxypropylcellulose) (HPC)
[2] = endpoint: mean survival time, dose: 200.0 mg/kg/injection, schedule: Q01DX009 (ip), vehicle: Klucel (hydroxypropylcellulose) (HPC)
[3] = endpoint: mean survival time, dose: 100.0 mg/kg/injection, schedule: Q04DX003 (ip), vehicle: saline with Tween-80
[4] = endpoint: mean survival time, dose: 200.0 mg/kg/injection, schedule: Q04DX003 (ip), vehicle: saline with Tween-80
[5] = endpoint: mean survival time, dose: 100.0 mg/kg/injection, schedule: Q01DX001 (ip), vehicle: saline with Tween-80
[6] = endpoint: mean survival time, dose: 200.0 mg/kg/injection, schedule: Q01DX001 (ip), vehicle: saline with Tween-80
[7] = endpoint: mean survival time, dose: 400.0 mg/kg/injection, schedule: Q01DX001 (ip), vehicle: saline with Tween-80
[8] = endpoint: mean survival time, dose: 100.0 mg/kg/injection, schedule: Q01DX009 (ip), vehicle: saline with Tween-80
[9] = endpoint: mean survival time, dose: 200.0 mg/kg/injection, schedule: Q01DX009 (ip), vehicle: saline with Tween-80
[10] = endpoint: mean survival time, dose: 400.0 mg/kg/injection, schedule: Q01DX009 (ip), vehicle: saline with Tween-80
[11] = endpoint: mean survival time, dose: 50.0 mg/kg/injection, schedule: Q01DX009 (ip), vehicle: Klucel (hydroxypropylcellulose) (HPC)
[12] = endpoint: mean survival time, dose: 100.0 mg/kg/injection, schedule: Q04DX003 (ip), vehicle: Klucel (hydroxypropylcellulose) (HPC)
[13] = endpoint: mean survival time, dose: 200.0 mg/kg/injection, schedule: Q04DX003 (ip), vehicle: Klucel (hydroxypropylcellulose) (HPC)
[14] = endpoint: mean survival time, dose: 400.0 mg/kg/injection, schedule: Q01DX009 (ip), vehicle: Klucel (hydroxypropylcellulose) (HPC)
[15] = endpoint: mean survival time, dose: 400.0 mg/kg/injection, schedule: Q04DX003 (ip), vehicle: Klucel (hydroxypropylcellulose) (HPC)
[16] = endpoint: mean survival time, dose: 50.0 mg/kg/injection, schedule: Q01DX001 (ip), vehicle: saline
[17] = endpoint: mean survival time, dose: 100.0 mg/kg/injection, schedule: Q01DX001 (ip), vehicle: saline
[18] = endpoint: mean survival time, dose: 200.0 mg/kg/injection, schedule: Q01DX001 (ip), vehicle: saline
[19] = endpoint: mean survival time, dose: 400.0 mg/kg/injection, schedule: Q01DX001 (ip), vehicle: saline

Measured: T/C

C=CCc1ccc(OC(=O)Nc2ccc(C(=O)OCC)cc2)c(OC)c1
inactive: [1] 90 % of control | [2] 90 % of control

CCS(=O)CCNC(=O)NS(=O)(=O)c1ccc(C)cc1 (configuration not stated)
inactive: [3] 100 % of control | [4] 101 % of control | endpoint: mean survival time, dose: 400.0 mg/kg/injection, schedule: Q04DX003 (ip), vehicle: saline with Tween-80 97 % of control

CN1C(CSCC(F)(F)F)Nc2cc(Cl)c(S(N)(=O)=O)cc2S1(=O)=O (configuration not stated)
inactive: endpoint: mean survival time, dose: 100.0 mg/kg/injection, schedule: Q01DX001 (ip), vehicle: carboxymethylcellulose (CMC) 108 % of control | endpoint: mean survival time, dose: 200.0 mg/kg/injection, schedule: Q01DX001 (ip), vehicle: carboxymethylcellulose (CMC) 106 % of control | endpoint: mean survival time, dose: 400.0 mg/kg/injection, schedule: Q01DX001 (ip), vehicle: carboxymethylcellulose (CMC) 103 % of control

CCC(/C=C\C(C)C1CCC2C3CC=C4CC(OS(=O)(=O)c5ccc(C)cc5)CCC4(C)C3CCC12C)C(C)C (configuration not stated)
inactive: [5] 90 % of control | [6] 90 % of control | [7] 86 % of control

CN(C(=O)COc1ccc(N2C(N)=NC(N)=NC2(C)C)cc1Cl)c1ccc(S(=O)(=O)F)cc1
inactive: [5] 112 % of control | [6] 102 % of control | [7] 105 % of control

OC12CCCCC13CCC1CCCCC1(O2)O3 (configuration not stated)
inactive: [8] 98 % of control | [9] 94 % of control | [10] 102 % of control

COC(=O)c1cc(NC(=O)Nc2ccc(F)c(Cl)c2)cc(C(=O)OC)c1
inactive: endpoint: mean survival time, dose: 100.0 mg/kg/injection, schedule: Q01DX009 (ip), vehicle: saline 98 % of control | endpoint: mean survival time, dose: 200.0 mg/kg/injection, schedule: Q01DX009 (ip), vehicle: saline 98 % of control | endpoint: mean survival time, dose: 400.0 mg/kg/injection, schedule: Q01DX009 (ip), vehicle: saline 102 % of control

CCCCCCCC#N
inactive: [5] 92 % of control | [6] 97 % of control | [7] 105 % of control

Cc1ccc(C2(C(=O)O)CCCCC2)cc1
inactive: [11] 96 % of control | [1] 90 % of control | [12] 102 % of control | [2] 88 % of control | [13] 98 % of control

CC1=N/C(=N\c2nc3cc(C)c(C)cc3[nH]2)NC(=O)CC1
inactive: endpoint: mean survival time, dose: 75.0 mg/kg/injection, schedule: Q01DX001 (ip), vehicle: saline 104 % of control

Cc1cc(Cl)cc(Cl)c1OCC(N)=O
inactive: endpoint: mean survival time, dose: 100.0 mg/kg/injection, schedule: Q04DX002 (ip), vehicle: saline with Tween-80 94 % of control | endpoint: mean survival time, dose: 200.0 mg/kg/injection, schedule: Q04DX002 (ip), vehicle: saline with Tween-80 94 % of control | endpoint: mean survival time, dose: 400.0 mg/kg/injection, schedule: Q04DX002 (ip), vehicle: saline with Tween-80 94 % of control

CC(=O)OC(C)C(=O)C1=C2CCCN2CCc2cc3c(cc21)OCO3 (configuration not stated)
inactive: endpoint: mean survival time, dose: 100.0 mg/kg/injection, schedule: Q04DX002 (ip), vehicle: Klucel (hydroxypropylcellulose) (HPC) 103 % of control | endpoint: mean survival time, dose: 200.0 mg/kg/injection, schedule: Q04DX002 (ip), vehicle: Klucel (hydroxypropylcellulose) (HPC) 103 % of control | endpoint: mean survival time, dose: 400.0 mg/kg/injection, schedule: Q04DX002 (ip), vehicle: Klucel (hydroxypropylcellulose) (HPC) 103 % of control

CC1(C2C3OC(=O)C2C2(O)CC4OC45C(=O)OC3C25C)CO1 (configuration not stated)
inactive: endpoint: mean survival time, dose: 25.0 mg/kg/injection, schedule: Q01DX009 (ip), vehicle: Klucel (hydroxypropylcellulose) (HPC) 92 % of control | [11] 104 % of control | [1] 95 % of control

Cc1cccc(NC(=O)COc2cc(Cl)c(Cl)cc2Cl)c1C
inactive: [1] 98 % of control | [2] 93 % of control | [14] 101 % of control

N#CCCN(C(=O)COc1ccc(Cl)cc1Cl)C1CCCCC1
inactive: [1] 95 % of control | [12] 95 % of control | [2] 104 % of control | [13] 100 % of control | [14] 95 % of control

N#CC(C#N)=Cc1c[nH]c2ccccc12
inactive: [8] 86 % of control | [3] 95 % of control | [9] 89 % of control | [4] 97 % of control | [10] 86 % of control

O=C(NCCCl)Oc1cccc2c1CCCC2
inactive: [1] 87 % of control | [12] 103 % of control | [2] 97 % of control | [13] 100 % of control | [14] 100 % of control | [15] 100 % of control

Cc1nc2nc(N)nc(N)c2nc1C
inactive: endpoint: mean survival time, dose: 15.63 mg/kg/injection, schedule: Q01DX Z (ip), vehicle: carboxymethylcellulose (CMC) 103 % of control | endpoint: mean survival time, dose: 31.25 mg/kg/injection, schedule: Q01DX Z (ip), vehicle: carboxymethylcellulose (CMC) 93 % of control | [16] 117 % of control | endpoint: mean survival time, dose: 62.5 mg/kg/injection, schedule: Q01DX Z (ip), vehicle: carboxymethylcellulose (CMC) 91 % of control | [17] 102 % of control | endpoint: mean survival time, dose: 125.0 mg/kg/injection, schedule: Q01DX Z (ip), vehicle: carboxymethylcellulose (CMC) 92 % of control | [18] 102 % of control | [19] 100 % of control

O=C1NC(=O)C(c2ccc(C(=O)O)cc2)N1 (configuration not stated)
inactive: [16] 107 % of control | [17] 105 % of control | [18] 100 % of control | [19] 96 % of control

COc1ccc(C[C@H](N)C(=O)NC2C(CO)OC(n3cnc4c(N(C)C)ncnc43)C2O)cc1 (some centres not stated)
inactive: endpoint: mean survival time, dose: 5.0 mg/kg/injection, schedule: Q01DX001 (ip), vehicle: saline 103 % of control | endpoint: mean survival time, dose: 9.94 mg/kg/injection, schedule: Q01DX Z (ip), vehicle: carboxymethylcellulose (CMC) 108 % of control | endpoint: mean survival time, dose: 10.0 mg/kg/injection, schedule: Q01DX001 (ip), vehicle: saline 97 % of control | endpoint: mean survival time, dose: 19.88 mg/kg/injection, schedule: Q01DX Z (ip), vehicle: carboxymethylcellulose (CMC) 117 % of control | endpoint: mean survival time, dose: 20.0 mg/kg/injection, schedule: Q01DX001 (ip), vehicle: saline 95 % of control | endpoint: mean survival time, dose: 39.75 mg/kg/injection, schedule: Q01DX Z (ip), vehicle: carboxymethylcellulose (CMC) 112 % of control | endpoint: mean survival time, dose: 40.0 mg/kg/injection, schedule: Q01DX001 (ip), vehicle: saline 110 % of control | endpoint: mean survival time, dose: 79.5 mg/kg/injection, schedule: Q01DX Z (ip), vehicle: carboxymethylcellulose (CMC) 113 % of control | endpoint: mean survival time, dose: 80.0 mg/kg/injection, schedule: Q01DX001 (ip), vehicle: saline 100 % of control | endpoint: median survival time, dose: 25.0 mg/kg/injection, schedule: Q04DX003 (ip), vehicle: saline 95 % of control | endpoint: median survival time, dose: 50.0 mg/kg/injection, schedule: Q04DX003 (ip), vehicle: saline 107 % of control | endpoint: median survival time, dose: 100.0 mg/kg/injection, schedule: Q04DX003 (ip), vehicle: saline 108 % of control | endpoint: median survival time, dose: 200.0 mg/kg/injection, schedule: Q04DX003 (ip), vehicle: saline 106 % of control

N[n+]1cccc2ccccc21
inactive: [17] 93 % of control | endpoint: mean survival time, dose: 100.0 mg/kg/injection, schedule: Q04DX003 (ip), vehicle: saline 108 % of control | [18] 108 % of control | endpoint: mean survival time, dose: 200.0 mg/kg/injection, schedule: Q04DX003 (ip), vehicle: saline 110 % of control

COC(=O)/C=C/N1C(=O)c2ccccc2C1=O
inactive: [1] 96 % of control | [12] 102 % of control | [2] 98 % of control | [13] 92 % of control | [14] 98 % of control | [15] 96 % of control
